Literature values as cited in US8450339B2, “Compositions for treatment of common cold” (Takeda Pharma A/S, priority 2001, dated 2013).
Counter-ions that a name gives are not always drawn.

Tests used:
[1] = following administration
[2] = aqueous solution

| SMILES | Mean duration of effect [1] [h] | Stability optimum, pH [2] |
| --- | --- | --- |
| CC(C)[N+]1(C)[C@@H]2CC[C@H]1CC(OC(=O)C(CO)c1ccccc1)C2.[Br-] (some centres unmarked) [ipratropium bromide] | 6 |  |
| Cc1cc(C(C)(C)C)cc(C)c1CC1=NCCN1 [xylometazoline hydrochloride] |  | 2 |
